Measured values from ChEMBL document CHEMBL1201862, “PubChem BioAssay data set” (2004).
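Briefly, cells in 96-well plates were exposed to five compound concentrations for 48 h, and endpoints were estimated by linear interpolation. GI50: concentration for 50% inhibition of growth.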 The source made the active and inactive calls. Cut-off read from the data, not from the text of the source: active = GI50 up to about 1.1 µM and inactive = higher.

Key:
Assay in all cases: NCI-60 cell line screen, 48 h
786-0 = test system: 786-0
BT-549 = test system: BT-549
CCRF-CEM = test system: CCRF-CEM
COLO 205 = test system: COLO 205
HL-60 = test system: HL-60
HT-29 = test system: HT-29
Hs-578T = test system: Hs-578T
IGROV-1 = test system: IGROV-1
K562 = test system: K562
MDA-MB-435 = test system: MDA-MB-435
MOLT-4 = test system: MOLT-4
NCI-H226 = test system: NCI-H226
NCI-H460 = test system: NCI-H460
SF-268 = test system: SF-268
SK-MEL-5 = test system: SK-MEL-5
SNB-19 = test system: SNB-19
UO-31 = test system: UO-31
SN12C = test system: SN12C
SR = test system: SR
T47D = test system: T47D

Row | SMILES | GI50 (786-0) | GI50 (BT-549) | GI50 (CCRF-CEM) | GI50 (COLO 205) | GI50 (HL-60) | GI50 (HT-29) | GI50 (Hs-578T) | GI50 (IGROV-1) | GI50 (K562) | GI50 (MDA-MB-435) | GI50 (MOLT-4) | GI50 (NCI-H226) | GI50 (NCI-H460) | GI50 (SF-268) | GI50 (SK-MEL-5) | GI50 (SNB-19) | GI50 (UO-31) | GI50 (SN12C) | GI50 (SR) | GI50 (T47D)
1 | O=c1[nH]c2c(c(=O)[nH]1)SC(c1ccccc1)C2 (stereo not given) | > 100 µM (inactive) | > 100 µM (inactive) | > 100 µM (inactive) | > 100 µM (inactive) | > 100 µM (inactive) | > 100 µM (inactive) | > 100 µM (inactive) | > 100 µM (inactive) | > 100 µM (inactive) | > 100 µM (inactive) | > 100 µM (inactive) | > 100 µM (inactive) | > 100 µM (inactive) | > 100 µM (inactive) | > 100 µM (inactive) | > 100 µM (inactive) | > 100 µM (inactive) |  |  | 
2 | CCCCc1c2c(nc3c1CCc1cc(C=O)c(N)nc1-3)/C(=C/c1ccccc1)CCC2 | > 100 µM (inactive) |  | > 100 µM (inactive) | 17 µM (inactive) | 63.1 µM (inactive) | > 100 µM (inactive) |  | > 100 µM (inactive) | > 100 µM (inactive) |  | 52.2 µM (inactive) | > 100 µM (inactive) | 40.8 µM (inactive) | > 100 µM (inactive) | > 100 µM (inactive) | > 100 µM (inactive) | > 100 µM (inactive) | > 100 µM (inactive) | 58.5 µM (inactive) | 
3 | Cc1ccc(-n2cc(-c3ccc(Cl)cc3)c3c(NN)ncnc32)cc1 | 2.55 µM (inactive) |  | 0.566 µM (active) | 1.72 µM (inactive) | 2.1 µM (inactive) | 4.48 µM (inactive) |  | 1.85 µM (inactive) | 2.88 µM (inactive) | 4.65 µM (inactive) | 2.36 µM (inactive) | 2.38 µM (inactive) | 3.4 µM (inactive) | 2.64 µM (inactive) | 1.57 µM (inactive) | 2.93 µM (inactive) | 3.82 µM (inactive) | 2.84 µM (inactive) | 3.41 µM (inactive) | 2.55 µM (inactive)
4 | O=C1c2cccc3cccc(c23)C(=O)N1CCCNOCCONCCCN1C(=O)c2cccc3cccc(c23)C1=O | 33.5 µM (inactive) | 73.3 µM (inactive) | 11.8 µM (inactive) | 83.8 µM (inactive) | 4.84 µM (inactive) | 92.5 µM (inactive) | 92.3 µM (inactive) | 62.8 µM (inactive) | 27 µM (inactive) | > 100 µM (inactive) | 12.1 µM (inactive) | 74.6 µM (inactive) | 59.4 µM (inactive) | 79.4 µM (inactive) | 58.5 µM (inactive) | 47.9 µM (inactive) | 45.5 µM (inactive) |  | 81.7 µM (inactive) | 
5 | CC(C)[Si](OC12CCC(CC1O)CC2CO)(C(C)C)C(C)C (stereo not given) | 10.5 µM (inactive) |  | 13.4 µM (inactive) | 18 µM (inactive) | 1.34 µM (inactive) | 15.5 µM (inactive) |  |  | 14.7 µM (inactive) | 16.1 µM (inactive) | 11.5 µM (inactive) | 17.3 µM (inactive) | 12.6 µM (inactive) | 14.6 µM (inactive) | 18.3 µM (inactive) | 15.3 µM (inactive) | 13.9 µM (inactive) | 22 µM (inactive) | 7.55 µM (inactive) | 9.77 µM (inactive)
6 | CCC12C=CCN3CCC4(C(=C(C(=O)OC)[C@@H]1O)Nc1ccccc14)C32 (stereo not given in full) | 1.64 µM (inactive) |  | 1.76 µM (inactive) | 1.81 µM (inactive) | 2 µM (inactive) | 1.98 µM (inactive) |  | 1.83 µM (inactive) | 2.03 µM (inactive) |  | 2.43 µM (inactive) | 1.26 µM (inactive) | 1.87 µM (inactive) | 2.29 µM (inactive) | 1.79 µM (inactive) | 1.91 µM (inactive) | 2.4 µM (inactive) | 2.3 µM (inactive) | 1.78 µM (inactive) | 
7 | CC(CCC[C@H](C)CO)[C@H]1[C@@H](O)C(O)C2[C@@H]3C[C@@H](O)C4(O)C[C@@H](O)CC[C@]4(C)C3CC[C@@]21C (stereo not given in full) | > 100 µM (inactive) |  | 40.9 µM (inactive) | > 100 µM (inactive) | 44.9 µM (inactive) | > 100 µM (inactive) |  | > 100 µM (inactive) | 31.8 µM (inactive) |  | > 100 µM (inactive) | > 100 µM (inactive) | > 100 µM (inactive) | > 100 µM (inactive) | > 100 µM (inactive) | > 100 µM (inactive) | > 100 µM (inactive) | > 100 µM (inactive) | 36 µM (inactive) | 
8 | COc1ccc2[nH]c3c(c2c1)CCn1c-3nc2ccccc2c1=O | > 25 µM (inactive) |  | > 25 µM (inactive) | > 25 µM (inactive) | > 25 µM (inactive) |  | > 25 µM (inactive) | > 25 µM (inactive) | > 25 µM (inactive) | > 25 µM (inactive) | > 25 µM (inactive) |  | > 25 µM (inactive) | > 25 µM (inactive) | > 25 µM (inactive) | > 25 µM (inactive) | > 25 µM (inactive) | > 25 µM (inactive) | > 25 µM (inactive) | > 25 µM (inactive)
